Data as given in ChEMBL document CHEMBL3739380, “Discovery of benzothiazoles as antimycobacterial agents: Synthesis, structure-activity relationships and binding studies with Mycobacterium tuberculosis decaprenylphosphoryl-β-D-ribose 2'-oxidase” (Bioorg Med Chem, 2015).

Tests used:
[1] = Inhibition of Mycobacterium tuberculosis DprE1 using farnesyl-phosphoryl-beta-D-ribofuranose as substrate preincubated for 30 mins before substrate addition by peroxidase coupled assay
[2] = system: Mycobacterium tuberculosis; test: Antimycobacterial activity against Mycobacterium tuberculosis H37Rv ATCC 27294 after 5 days by microdilution method; format: functional; conditions: H37Rv ATCC 27294, 120 h
[3] = system: Salmonella typhimurium; test: Genotoxicity in Salmonella typhimurium TA100 at 500 ug/plate by Ames test in absence of S9 fraction; format: toxicity, organism-based; conditions: salmonella enterica subsp. enterica serovar typhimurium
[4] = system: Salmonella typhimurium; test: Genotoxicity in Salmonella typhimurium TA100 at 500 ug/plate by Ames test in presence of S9 fraction; format: toxicity, organism-based; conditions: salmonella enterica subsp. enterica serovar typhimurium

SMILES: COCc1nc2cc(C(F)(F)F)cc([N+](=O)[O-])c2s1
- IC50 [1]: 5.9 µM
- MIC [2]: > 32 µg/mL
- Activity [3]: Non-toxic
- Activity [4]: Non-toxic
